Key:
[1] = system: GSCs; assay: two-week limiting dilution assay (LDA), self-renewal / neuro-sphere formation; assay type: cell-based
From the text: A graph using an online algorism to score and assess the self-renew ability of GSCs treated with DMSO and HDAC class IIa inhibitor respectively (FIGS. 6B and 6D).
To validate whether HDAC-7 inhibition would present a phenotype change in primary GSCs, its effect on modifying the self-renewal of GSCs was examined, and since there is no small molecule drug currently available as a selective HDAC-7 inhibitor, the class IIa HDAC inhibitor, TMP269, that inhibits HDAC-4,5,7,9, was used. The two-week limiting dilution assay “LDA” that tests the frequency of self-renewing cells within a population was applied. […] Moreover, the same significant result was observed when testing GSCs from different genotypes (FIGS. 6A-6D).

[2] = system: GSCs; assay: cell viability assay by MTS; assay type: cell-based; settings: increasing doses, 72 hrs
Description: Dose response curve for GSCs treated with Pan HDAC inhibitors TSA (Trichostatin A), SAHA (Vorinostat) versus the HDAC class IIa inhibitor (TMP269). Cell viability assay was determined by MTS after the treatment with increasing doses of each corresponding drug at time point 72 hrs with P-value <0.0001.
HDAC-7 has been crystalized, and like other members of class I, II, and IV, HDAC-7 binds to the substrates through a zinc mediated charge relay system. Class IIa HDAC has another specific zinc-binding motif adjacent to the active site, which directs the recognition and protein-protein interaction. However, there is remarkable structural diversity in HDAC-7 found in loop regions around the active site entrance that poses a challenge to generation of inhibitors.

Compound	neuro-sphere formation of GSCs ([1]; 2-week limiting dilution assay, versus DMSO control)	self-renewal of GSCs (ability to form neuro-spheres, algorithmic scoring) ([1]; two-week LDA, versus DMSO-treated control cells, GSCs from different genotypes)	GSC cell viability [2]
O=C(NCC1(c2nc(-c3ccccc3)cs2)CCOCC1)c1cccc(-c2noc(C(F)(F)F)n2)c1 [TMP269]	unable to form neuro-spheres	significant decrease	decreases the GSCs' viability
O=C(CCCCCCC(=O)Nc1ccccc1)NO [Vorinostat]			inhibitory trend

From patent US20250002488A1, “Glioblastoma Multiforme Treatments” (Brown University, priority 2021, published 2025)
